Consider 17 compounds from patent publication US11285156B2, “Substituted piperazines as KRAS G12C inhibitors” (Amgen Inc., priority 2018, dated 2022).

Read-outs that look alike come from different tables or passages of the source. Where only a bound is given, the exact number is not on record here.

The subject of test [1] is Phosphorylation of ERK1/2 in MIA PaCa-2 cells. The test is described as follows: Phospho-ERK1/2 MSD assay in MIA PaCa-2 cells. The class given is cell-based. Particulars: read-out: p-ERK IC50 (2 h, MiaPaCa-2; μM), 2 h compound treatment, MIA PaCa-2 cells, EGF stimulated. In a few lines: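 Phospho-ERK1/2 measured by MSD electrochemiluminescence kit in RIPA lysates of MIA PaCa-2 cells. Cells were treated with compound titrations for 2 or 4 h at 37 °C, 5% CO2, followed by a 10 min pulse of 10 ng/mL EGF.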

For test [2], the target named is GDP-bound KRAS protein (aa 1-169), containing both G12C and C118A amino acid substitutions (Homo sapiens (Human), UniProt P01116, C118A/G12C). The test is described as follows: Coupled nucleotide exchange assay (SOS-mediated nucleotide exchange, AlphaScreen). The class given is biochemical. Particulars: 5 min compound pre-incubation; for IC50: read-out: Coupled exchange IC50 (5 min; μM). For orientation: Bead proximity is the source of the signal in Alpha formats.
GDP-bound KRAS protein (aa 1-169), containing both G12C and C118A amino acid substitutions, sequence (P01116 other isoform, or with tags, fused parts or gaps G12C/C118A): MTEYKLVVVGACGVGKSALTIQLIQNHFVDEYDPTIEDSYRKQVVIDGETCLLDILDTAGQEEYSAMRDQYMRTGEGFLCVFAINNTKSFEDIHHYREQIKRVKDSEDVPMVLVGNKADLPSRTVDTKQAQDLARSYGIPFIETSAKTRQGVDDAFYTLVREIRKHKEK
Method: Coupled Nucleotide Exchange Assay:
Following compound pre-incubation, purified SOS protein (aa 564-1049) and GTP (Roche 10106399001) were added to the assay wells and incubated for an additional 30 min (for 5 min compound pre-incubation) or 1 hour (for 2 hour compound pre-incubation). […] The assay plates were then read on a PerkinElmer EnVision Multilabel Reader, using AlphaScreen® technology, and data were analyzed using a 4-parameter logistic model to calculate IC50 values.

Test [3] deals with Phosphorylation of ERK1/2 in A549 cells. The test is described as follows: Phospho-ERK1/2 MSD assay in A549 cells. The class given is cell-based. Particulars: read-out: p-ERK IC50 (2 h, A549; μM), 2 h compound treatment, A549 cells, EGF stimulated. The method in brief:
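MSD electrochemiluminescent read-out of phospho-ERK1/2 in RIPA lysates. Cells in RPMI 1640 with 10% FBS received titrated compound for 2 or 4 h, then 10 ng/mL EGF for 10 min before ice-cold PBS wash and lysis.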

One may read the IC50 as the midpoint of a concentration-inhibition curve. With `C=CC(=O)N1C[C@H](C)N(c2nc(=O)n(-c3c(C)ccnc3C(C)C)c3nc(-c4ccccc4C)c(F)cc23)C[C@H]1C` (atropisomer, axis not shown; (M)) [Example 94-8, (M)-4-[(2S,5R)-2,5-Dimethyl-4-prop-2-enoyl-piperazin-1-yl]-6-fluoro-1-(2-isopropyl-4-methyl-3-pyridyl)-7-(o-tolyl)pyrido[2,3-d]pyrimidin-2-one], the 50% inhibitory concentration (IC50) is 0.131 µM in test [1] (Homo sapiens, MIA PaCa-2, 2 h); 0.255 µM in test [2]; over 7.5 µM in test [3] (Homo sapiens, A549, 2 h).

On to `C=CC(=O)N1C[C@H](C)N(c2nc(=O)n(-c3c(CN(C)C)ccnc3C(C)C)c3nc(-c4ccccc4F)c(Cl)cc23)C[C@H]1C` (single isomer, unassigned) [Example 80-16-1], for which the 50% inhibitory concentration (IC50) is 0.041 µM in test [1] (Homo sapiens, MIA PaCa-2, 2 h); 0.061 µM in test [2]; over 7.5 µM in test [3] (Homo sapiens, A549, 2 h).

Regarding `C=CC(=O)N1C[C@H](C)N(c2nc(=O)n(-c3c(C)ccnc3C(C)C)c3nc(-c4ccccc4NC(=O)C(F)(F)F)c(Cl)cc23)C[C@H]1C` (atropisomer, axis not shown; (M)) [Example 129-5], the half-inhibitory concentration (IC50) in test [1] (Homo sapiens, MIA PaCa-2, 2 h) was 0.087 µM; in test [2] it was 0.19 µM; in test [3] (Homo sapiens, A549, 2 h), over 7.5 µM.

`C=CC(=O)N1C[C@H](C)N(c2nc(=O)n(-c3c(C)ccnc3C(C)C)c3nc(-c4cc(OC(F)(F)F)ccc4F)c(Cl)cc23)C[C@H]1C` (atropisomer, axis not shown; (M)) [Example 124-12, (M)-6-Chloro-4-[(2S,5R)-2,5-dimethyl-4-prop-2-enoyl-piperazin-1-yl]-7-[2-fluoro-5-(trifluoromethoxy)phenyl]-1-(2-isopropyl-4-methyl-3-pyridyl)pyrido[2,3-d]pyrimidin-2-one]: the concentration for half-maximal inhibition (IC50) in test [1] (Homo sapiens, MIA PaCa-2, 2 h) is 0.231 µM; in test [2], 0.313 µM; in test [3] (Homo sapiens, A549, 2 h), over 7.5 µM.

For `C=CC(=O)N1C[C@H](C)N(c2nc(=O)n(-c3c(C)ccnc3C(C)C)c3nc(-c4cccc(F)c4OC)c(Cl)cc23)C[C@H]1C` (atropisomer, axis not shown; (M)) [Example 92-62, (M)-6-Chloro-4-[(2S,5R)-2,5-dimethyl-4-prop-2-enoyl-piperazin-1-yl]-7-(3-fluoro-2-methoxy-phenyl)-1-(2-isopropyl-4-methyl-3-pyridyl)pyrido [2,3-d]pyrimidin-2-one], the IC50 in test [1] (Homo sapiens, MIA PaCa-2, 2 h) was 0.075 µM; in test [2], 0.01 µM; in test [3] (Homo sapiens, A549, 2 h), over 7.5 µM.

As to `C=CC(=O)N1C[C@H](C)N(c2nc(=O)n(-c3c(C)ccnc3C(C)C)c3nc(C4=CCCCCC4)c(Cl)cc23)C[C@H]1C` (atropisomer, axis not shown; (M)) [Example 92-10, (M)-6-Chloro-7-(cyclohepten-1-yl)-4-[(2S,5R)-2,5-dimethyl-4-prop-2-enoyl-piperazin-1-yl]-1-(2-isopropyl-4-methyl-3-pyridyl)pyrido [2,3-d]pyrimidin-2-one], the half-maximal inhibitory concentration (IC50) in test [1] (Homo sapiens, MIA PaCa-2, 2 h) was 0.367 µM; in test [2] it was 0.059 µM; in test [3] (Homo sapiens, A549, 2 h), over 7.5 µM.

For `C=CC(=O)N1C[C@H](C)N(c2nc(=O)n(-c3c(N(C)C)ccnc3C(C)C)c3nc(-c4c(F)cccc4NC(=O)CC)c(Cl)cc23)C[C@H]1C` (single isomer, unassigned) [Example 122-2-2], the IC50 in test [1] is 0.63 µM; in test [2], 0.088 µM; in test [3] (Homo sapiens, A549, 2 h), over 7.5 µM.

As for `C=CC(=O)N1C[C@H](C)N(c2nc(=O)n(-c3c(N)ncnc3C(C)C)c3nc(-c4c(O)cccc4F)c(Cl)cc23)C[C@H]1C` [Example 190, 4-((2S,5R)-4-Acryloyl-2,5-dimethylpiperazin-1-yl)-1-(4-amino-6-isopropylpyrimidin-5-yl)-6-chloro-7-(2-fluoro-6-hydroxyphenyl)pyrido[2,3-d]pyrimidin-2(1H)-one], the IC50 is 1.71 µM in test [1] (Homo sapiens, MIA PaCa-2, 2 h) and over 7.5 µM in test [3] (Homo sapiens, A549, 2 h). Also, the “Coupled exchange IC50 (5 min; μM)” value in test [2] came out at 0.126 µM.

As for `C=CC(=O)N1C[C@H](C)N(c2nc(=O)n(-c3c(C(C)C)cnnc3C(C)C)c3nc(-c4ccccc4F)c(Cl)cc23)C[C@H]1C` (single isomer, unassigned) [Example 205-2], the values for the concentration for half-maximal inhibition (IC50) in test [1] and in test [3] were 0.091 µM and over 7.5 µM, respectively. Further, the “Coupled exchange IC50 (5 min; μM)” value in test [2] is 0.078 µM.

As to `C=CC(=O)N1C[C@H](C)N(c2nc(=O)n(-c3c(N(C)C)ccnc3C(C)C)c3nc(-c4ccccc4F)c(Cl)cc23)C[C@H]1C` (single isomer, unassigned) [Example 55-51-1], the IC50 in test [1] was 0.157 µM; in test [2] it was 0.298 µM; in test [3], over 7.5 µM.

For `C=CC(=O)N1C[C@H](C)N(c2nc(=O)n3c4nc(c(Cl)cc24)-c2ccccc2OC/C=C/Cc2ccccc2-3)C[C@H]1C` [Example 146-4, 20-chloro-23-((2S,5R)-2,5-dimethyl-4-(2-propenoyl)-1-piperazinyl)-12-oxa-1,24,27-triazapentacyclo[17.6.2.0~2,7~.0~13,18~.0~22,26~]heptacosa-2,4,6,9,13,15,17,19,21,23,26-undecaen-25-one], the IC50 is 4.19 µM in test [1] (Homo sapiens, MIA PaCa-2, 2 h); 8.13 µM in test [2]; over 7.5 µM in test [3] (Homo sapiens, A549, 2 h).

For the compound `C=CC(=O)N1C[C@H](C)N(c2nc(=O)n(-c3c(C)ccnc3C(C)C)c3nc(-c4ccccc4C(F)(F)F)c(Cl)cc23)C[C@H]1C` (atropisomer, axis not shown; (M)) [Example 92-23, (M)-6-Chloro-4-[(2S,5R)-2,5-dimethyl-4-prop-2-enoyl-piperazin-1-yl]-1-(2-isopropyl-4-methyl-3-pyridyl)-7-[2-(trifluoromethyl)phenyl]pyrido [2,3-d]pyrimidin-2-one], the IC50 is 0.036 µM in test [1] (Homo sapiens, MIA PaCa-2, 2 h); 0.038 µM in test [2]; over 7.5 µM in test [3] (Homo sapiens, A549, 2 h).

For the compound `C=CC(=O)N1C[C@H](C)N(c2nc(=O)n(-c3c(C(C)C)cccc3S(C)(=O)=O)c3nc(-c4ccccc4F)c(Cl)cc23)C[C@H]1C` (single isomer, unassigned) [Example 208-2], the IC50 was 0.106 µM in test [1], 0.117 µM in test [2] and over 7.5 µM in test [3].

As to `C=CC(=O)N1C[C@H](C)N(c2nc(=O)n(-c3c(C)nc(C(=C)C)nc3C(C)C)c3nc(-c4ccccc4F)c(Cl)cc23)C[C@H]1C` (single isomer, unassigned) [Example 201], the IC50 in test [1] (Homo sapiens, MIA PaCa-2, 2 h) was found to be 0.205 µM; in test [3] (Homo sapiens, A549, 2 h), 5.05 µM. In test [2], the “Coupled exchange IC50 (5 min; μM)” value was 0.075 µM.

On to `C=CC(=O)N1C[C@H](C)N(c2nc(=O)n(-c3c(C)nc(C=C)nc3C(C)C)c3nc(-c4ccccc4F)c(Cl)cc23)C[C@H]1C` (single isomer, unassigned) [Example 202], for which the IC50 in test [1] (Homo sapiens, MIA PaCa-2, 2 h) was 0.075 µM; in test [3] (Homo sapiens, A549, 2 h), over 7.5 µM. Also, in test [2], the “Coupled exchange IC50 (5 min; μM)” value was 0.071 µM.

Turning to `C=CC(=O)N1C[C@H](C)N(c2nc(=O)n(-c3c(Cl)ncnc3C(C)C)c3nc(-c4ccccc4F)c(Cl)cc23)C[C@H]1C` (single isomer, unassigned) [Example 102-5-1], the results for the IC50 in test [1], in test [2] and in test [3] were 0.058 µM, 0.031 µM and over 7.5 µM, respectively.

As for `C=CC(=O)N1C[C@H](C)N(c2nc(=O)n(-c3c(C(C)C)nc(Br)nc3C(C)C)c3nc(-c4ccccc4F)c(Cl)cc23)C[C@H]1C` [Example 106-1, 4-((2S,5R)-4-Acryloyl-2,5-dimethylpiperazin-1-yl)-1-(2-bromo-4,6-diisopropylpyrimidin-5-yl)-6-chloro-7-(2-fluorophenyl)pyrido[2,3-d]pyrimidin-2(1H)-one], the half-inhibitory concentration (IC50) is 0.096 µM in test [1] (Homo sapiens, MIA PaCa-2, 2 h); 0.08 µM in test [2]; 4.54 µM in test [3] (Homo sapiens, A549, 2 h).
